Test results from the Kinase Knowledgebase extract (Sharma et al. 2016).
pIC50: −log10 of the molar value.

How the values were obtained:
[1] = target: PIK3CB (Human) (UniProt P42338); test: Enzyme Assay
[2] = target: PIK3CA (human) (UniProt P42336); test: Enzyme Assay
[3] = target: PIK3CD (Human) (UniProt O00329); test: Enzyme Assay
[4] = target: PIK3CG (human) (UniProt P48736); test: Enzyme Assay
[5] = target: PIK3CA (human) (UniProt P42336); test: Cell-Based Assay

Sequence of PIK3CB (Human) (P42338 whole entry, looked up): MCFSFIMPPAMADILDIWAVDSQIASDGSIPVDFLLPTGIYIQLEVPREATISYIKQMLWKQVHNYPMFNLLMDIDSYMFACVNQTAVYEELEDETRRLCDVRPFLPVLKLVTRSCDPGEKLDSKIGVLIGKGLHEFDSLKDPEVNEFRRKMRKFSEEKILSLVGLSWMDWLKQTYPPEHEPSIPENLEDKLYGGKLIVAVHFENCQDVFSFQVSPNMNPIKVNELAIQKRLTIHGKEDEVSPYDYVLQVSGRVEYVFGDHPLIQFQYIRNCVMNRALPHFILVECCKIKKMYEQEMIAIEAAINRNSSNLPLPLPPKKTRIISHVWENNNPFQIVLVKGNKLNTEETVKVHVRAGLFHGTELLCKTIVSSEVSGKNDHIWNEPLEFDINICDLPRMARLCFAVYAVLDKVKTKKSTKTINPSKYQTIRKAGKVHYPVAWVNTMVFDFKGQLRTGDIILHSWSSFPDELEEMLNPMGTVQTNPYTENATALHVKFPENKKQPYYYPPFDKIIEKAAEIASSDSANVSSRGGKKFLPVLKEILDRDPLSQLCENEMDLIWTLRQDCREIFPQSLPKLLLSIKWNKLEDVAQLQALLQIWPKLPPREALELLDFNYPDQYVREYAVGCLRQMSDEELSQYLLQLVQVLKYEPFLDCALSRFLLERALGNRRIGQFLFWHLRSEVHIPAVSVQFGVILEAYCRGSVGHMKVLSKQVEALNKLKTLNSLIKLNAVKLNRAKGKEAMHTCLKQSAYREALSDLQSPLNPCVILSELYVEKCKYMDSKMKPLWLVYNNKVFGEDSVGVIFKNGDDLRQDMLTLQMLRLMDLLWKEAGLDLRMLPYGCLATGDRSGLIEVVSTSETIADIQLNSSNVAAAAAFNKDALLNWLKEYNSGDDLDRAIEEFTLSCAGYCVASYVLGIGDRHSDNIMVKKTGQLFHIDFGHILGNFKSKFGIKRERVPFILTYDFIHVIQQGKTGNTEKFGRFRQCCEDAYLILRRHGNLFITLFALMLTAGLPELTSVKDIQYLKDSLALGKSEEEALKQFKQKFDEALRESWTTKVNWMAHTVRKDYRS
Sequence of PIK3CD (Human) (O00329 whole entry, looked up): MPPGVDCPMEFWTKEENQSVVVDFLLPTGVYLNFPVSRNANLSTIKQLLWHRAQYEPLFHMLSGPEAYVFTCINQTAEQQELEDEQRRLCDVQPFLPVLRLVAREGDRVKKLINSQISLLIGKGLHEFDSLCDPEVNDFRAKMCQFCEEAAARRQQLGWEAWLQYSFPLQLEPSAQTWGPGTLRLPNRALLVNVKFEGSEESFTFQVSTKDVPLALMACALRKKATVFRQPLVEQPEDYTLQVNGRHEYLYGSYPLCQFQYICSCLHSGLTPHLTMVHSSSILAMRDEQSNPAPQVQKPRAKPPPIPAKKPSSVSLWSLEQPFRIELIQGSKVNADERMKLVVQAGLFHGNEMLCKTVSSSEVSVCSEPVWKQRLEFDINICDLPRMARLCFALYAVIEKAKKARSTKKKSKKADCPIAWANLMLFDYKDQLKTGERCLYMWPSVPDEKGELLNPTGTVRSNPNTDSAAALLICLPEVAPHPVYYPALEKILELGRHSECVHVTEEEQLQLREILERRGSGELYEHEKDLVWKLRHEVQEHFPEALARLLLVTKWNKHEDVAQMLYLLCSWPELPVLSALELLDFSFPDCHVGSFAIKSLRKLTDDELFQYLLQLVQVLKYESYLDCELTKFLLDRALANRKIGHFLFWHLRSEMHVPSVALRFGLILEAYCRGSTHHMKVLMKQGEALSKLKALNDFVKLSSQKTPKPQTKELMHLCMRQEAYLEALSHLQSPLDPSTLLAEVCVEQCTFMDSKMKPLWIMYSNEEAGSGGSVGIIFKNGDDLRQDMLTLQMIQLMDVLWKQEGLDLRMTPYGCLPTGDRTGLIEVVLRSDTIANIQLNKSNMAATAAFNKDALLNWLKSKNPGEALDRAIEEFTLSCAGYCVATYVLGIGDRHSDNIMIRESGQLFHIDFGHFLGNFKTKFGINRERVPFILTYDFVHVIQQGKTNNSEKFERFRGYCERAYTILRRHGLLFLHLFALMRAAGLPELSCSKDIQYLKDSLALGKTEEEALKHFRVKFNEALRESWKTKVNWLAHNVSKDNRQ
Sequence of PIK3CA (human) (P42336 whole entry, looked up): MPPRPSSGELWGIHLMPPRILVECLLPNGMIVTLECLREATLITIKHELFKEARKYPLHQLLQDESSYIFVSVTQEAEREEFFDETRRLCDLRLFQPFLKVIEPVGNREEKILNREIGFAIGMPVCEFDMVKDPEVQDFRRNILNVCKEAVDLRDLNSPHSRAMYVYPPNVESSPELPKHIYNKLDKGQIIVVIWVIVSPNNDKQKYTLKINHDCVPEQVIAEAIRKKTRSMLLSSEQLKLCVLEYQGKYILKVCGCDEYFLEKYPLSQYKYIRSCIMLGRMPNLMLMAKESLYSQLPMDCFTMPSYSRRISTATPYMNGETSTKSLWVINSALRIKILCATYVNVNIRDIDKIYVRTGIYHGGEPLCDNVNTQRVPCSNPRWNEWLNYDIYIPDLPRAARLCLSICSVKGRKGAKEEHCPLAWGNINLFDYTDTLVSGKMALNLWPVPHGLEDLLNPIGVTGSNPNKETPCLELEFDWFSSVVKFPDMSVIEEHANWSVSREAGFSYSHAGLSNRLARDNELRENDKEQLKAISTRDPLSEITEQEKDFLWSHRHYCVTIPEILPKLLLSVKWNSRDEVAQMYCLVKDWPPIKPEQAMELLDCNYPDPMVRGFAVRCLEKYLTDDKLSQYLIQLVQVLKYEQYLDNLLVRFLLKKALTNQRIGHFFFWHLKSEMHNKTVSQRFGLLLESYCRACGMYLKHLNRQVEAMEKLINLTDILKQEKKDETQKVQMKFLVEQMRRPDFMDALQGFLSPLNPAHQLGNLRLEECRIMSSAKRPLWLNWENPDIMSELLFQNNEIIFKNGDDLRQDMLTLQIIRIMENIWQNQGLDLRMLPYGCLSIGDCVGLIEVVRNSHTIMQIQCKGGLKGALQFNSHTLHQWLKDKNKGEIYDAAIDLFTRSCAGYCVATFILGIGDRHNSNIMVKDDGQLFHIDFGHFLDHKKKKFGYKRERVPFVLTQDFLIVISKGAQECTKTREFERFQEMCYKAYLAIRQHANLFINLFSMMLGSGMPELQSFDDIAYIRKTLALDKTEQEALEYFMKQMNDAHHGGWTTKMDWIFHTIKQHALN
Sequence of PIK3CG (human) (P48736 whole entry, looked up): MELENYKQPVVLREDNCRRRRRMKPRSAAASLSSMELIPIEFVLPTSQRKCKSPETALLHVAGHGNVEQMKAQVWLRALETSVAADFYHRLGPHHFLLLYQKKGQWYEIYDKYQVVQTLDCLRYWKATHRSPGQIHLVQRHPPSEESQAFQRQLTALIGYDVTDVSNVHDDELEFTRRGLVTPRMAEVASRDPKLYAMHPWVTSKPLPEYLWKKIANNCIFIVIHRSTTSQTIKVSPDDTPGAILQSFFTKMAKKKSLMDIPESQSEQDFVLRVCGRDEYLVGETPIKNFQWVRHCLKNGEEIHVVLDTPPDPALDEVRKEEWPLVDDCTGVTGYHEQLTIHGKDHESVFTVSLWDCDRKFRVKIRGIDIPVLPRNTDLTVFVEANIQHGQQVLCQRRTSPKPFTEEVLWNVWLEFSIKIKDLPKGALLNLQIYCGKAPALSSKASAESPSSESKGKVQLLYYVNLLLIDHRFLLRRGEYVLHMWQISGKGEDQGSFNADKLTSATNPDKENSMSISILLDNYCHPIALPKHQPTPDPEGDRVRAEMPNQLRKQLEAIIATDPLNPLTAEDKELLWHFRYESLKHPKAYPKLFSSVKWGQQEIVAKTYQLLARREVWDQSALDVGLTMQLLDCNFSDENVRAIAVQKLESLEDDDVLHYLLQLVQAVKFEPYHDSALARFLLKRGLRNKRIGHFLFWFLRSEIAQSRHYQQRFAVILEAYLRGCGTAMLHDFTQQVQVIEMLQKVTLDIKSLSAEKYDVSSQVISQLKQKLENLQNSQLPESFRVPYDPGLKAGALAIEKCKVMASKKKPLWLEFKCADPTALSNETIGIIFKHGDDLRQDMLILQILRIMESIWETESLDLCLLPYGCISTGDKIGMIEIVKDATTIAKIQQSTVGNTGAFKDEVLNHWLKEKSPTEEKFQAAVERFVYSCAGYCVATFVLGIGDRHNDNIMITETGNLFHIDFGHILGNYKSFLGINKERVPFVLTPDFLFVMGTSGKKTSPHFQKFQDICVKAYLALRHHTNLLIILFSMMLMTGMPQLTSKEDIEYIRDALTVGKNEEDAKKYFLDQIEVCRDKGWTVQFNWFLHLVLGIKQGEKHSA

| Structure (SMILES) | pIC50 [1] | pIC50 [2] | pIC50 [3] | pIC50 [4] | pIC50 ([5]; pc3) | pIC50 ([5]; t47d) |
| --- | --- | --- | --- | --- | --- | --- |
| Nc1nc2cc(-c3ccc4ncc(-c5cn[nH]c5)n4n3)ccc2o1 | > 7.00 | > 7.00 | 6.00 to 7.00 | > 7.00 | – | – |
| C[C@H]1CN(c2cnc3ccc(-c4cccc5c(N)nsc45)cc3n2)CCN1 | – | – | – | > 7.00 | – | – |
| Nc1nc2cc(-c3ccc4ncc(C(=O)N5C6CCC5COC6)n4c3)ccc2o1 | – | 6.00 to 7.00 | – | > 7.00 | 6.00 to 7.00 | – |
| CN1CCN(S(=O)(=O)c2cnc3ccc(-c4ccc5oc(N)nc5c4)cn23)CC1 | < 5.00 | < 5.00 | < 5.00 | < 5.00 | – | – |
| CN1CCN(C(=O)c2cnn3ccc(-c4ccc5oc(N)nc5c4)cc23)CC1 | – | 6.00 to 7.00 | < 5.00 | – | – | – |
| Nc1nc2cc(-c3ccc4ncc(C(=O)N[C@H]5CC[C@H](O)CC5)n4c3)ccc2o1 | – | – | – | > 7.00 | – | – |
| Nc1nc2cccc(-c3ccc4nccc(-c5ccncc5)c4c3)c2s1 | – | > 7.00 | – | – | – | – |
| CS(=O)(=O)N1CCC(n2cnc3ccc(-c4ccc5oc(N)nc5c4)cc3c2=O)CC1 | – | 6.00 to 7.00 | < 5.00 | < 5.00 | – | – |
| NC1=NC2C=C(c3ccc4nc(N)oc4c3)C=CC2O1 (stereo not drawn) | – | 6.00 to 7.00 | 6.00 to 7.00 | > 7.00 | – | – |
| Nc1nc2cc(-c3ccc4ncc(-c5ccncc5)n4n3)ccc2o1 | 6.00 to 7.00 | > 7.00 | – | > 7.00 | 6.00 to 7.00 | 6.00 to 7.00 |
| Nc1nc2cc(-c3ccc4nccc(-c5ccncc5)c4c3)ccc2o1 | – | > 7.00 | > 7.00 | > 7.00 | 6.00 to 7.00 | 6.00 to 7.00 |
| NC1=NC2C=C(c3ccc4oc(N)nc4c3)C=CC2O1 (stereo not drawn) | – | 6.00 to 7.00 | – | > 7.00 | – | – |
| Nc1nc2cc(-c3ccc4ncc(N[C@H]5CC[C@H](O)CC5)nc4c3)ccc2o1 | – | > 7.00 | > 7.00 | > 7.00 | – | – |
| C[C@H]1CN(c2cnc3ccc(-c4ccc5oc(N)nc5c4)cc3c2)CCN1 | > 7.00 | > 7.00 | < 5.00 | – | – | – |
| COC(=O)N1CCC(N2N=CC3C(N4CCOCC4)=NC(c4ccc5oc(N)nc5c4)=NC32)CC1 (stereo not drawn) | – | 6.00 to 7.00 | < 5.00 | < 5.00 | – | – |
| Nc1nc2cc(-c3ccc4ncc(C(=O)N5CCC(N6CCC(F)(F)C6)C5)n4c3)ccc2o1 (stereo not drawn) | < 5.00 | 6.00 to 7.00 | – | – | – | – |
| CC(=O)Nc1cc2ccc(-c3cc(F)c4oc(N)nc4c3)cn2n1 | < 5.00 | < 5.00 | < 5.00 | – | – | – |
| Nc1nc2ccc(-c3ccc4nccc(-c5ccncc5)c4c3)cc2s1 | < 5.00 | > 7.00 | 6.00 to 7.00 | 6.00 to 7.00 | – | – |
| Nc1nc2cc(-c3ccc4ncc(C(=O)N5CCC(O)C5)n4c3)ccc2o1 (stereo not drawn) | – | – | – | 6.00 to 7.00 | – | 6.00 to 7.00 |
| CC1CN(C(=O)c2cnc3ccc(-c4ccc5oc(N)nc5c4)cn23)CCN1 (stereo not drawn) | 6.00 to 7.00 | 6.00 to 7.00 | < 5.00 | < 5.00 | – | – |
| CNc1nsc2cc(-c3ccc4ncc(C(=O)N5CCOCC5)n4c3)ccc12 | < 5.00 | < 5.00 | < 5.00 | < 5.00 | – | – |
| Nc1nc2cc(-c3ccc4ncc(S(=O)(=O)N5CCOCC5)n4c3)ccc2o1 | < 5.00 | < 5.00 | < 5.00 | < 5.00 | – | – |
| COc1ncc(-c2ccc3ncn(C4CCN(C)CC4)c(=O)c3c2)cc1NS(C)(=O)=O | – | – | > 7.00 | – | – | – |
| CN1CCN(n2cnc3ccc(-c4ccc5oc(N)nc5c4)cc3c2=O)CC1 | < 5.00 | 6.00 to 7.00 | < 5.00 | < 5.00 | – | – |
| Nc1nc2cc(-c3ccc4ncn(-c5ccncc5)c4c3)ccc2o1 | – | > 7.00 | – | 6.00 to 7.00 | < 5.00 | – |
| CC1(C)CN(C2CN(C(=O)c3cnc4ccc(-c5ccc6oc(N)nc6c5)cn34)C2)CCN1 | – | > 7.00 | > 7.00 | 6.00 to 7.00 | 6.00 to 7.00 | – |
| Nc1nc2cc(-c3ccc4ncc(-c5ccncc5)n4c3)ccc2o1 | – | > 7.00 | 6.00 to 7.00 | > 7.00 | – | 6.00 to 7.00 |
| CCNC(=O)c1cnc2ccc(-c3ccc4oc(N)nc4c3)cn12 | – | – | – | – | – | 6.00 to 7.00 |
